The test system of assay [1] is anti-HBc antibodies. Kind of assay: Anti-HBc antibody level by ELISA in HBV-persistent mice. The assay is classed as in vivo, C57BL/6J mice. The following applies: serum 1/2000, up to day 76; sildenafil 20 mg/kg/day D31-59 or D48-76. The source says:
Graphs A-F illustrate anti-HBc antibody levels determined respectively in individual mice of the six study groups 1-6. Individual mice are shown as thin line and the group mean titers as bold dotted black line. In all graphs the Y-axis indicates the anti-HBc levels (OD450) and the X-axis the time (number of days post-AAV2/8-HBV injection). Time points of immunization (D36, D43, D50) are shown by a dashed line and the period of sildenafil treatment is shown by a horizontal bar on the top of the graph.
The HBV persistent mice used in the study were described by Dion et al. (2013, J Virol, 87(10):5554-63). The model is based on the introduction in mice of an adeno-associated virus (AAV) encoding for a full length HBV genome (AAV2/8-HBV) and causing the production of infectious HBV particles in mouse livers. This allows the analysis of HBV-specific viral parameters (HBsAg, HBeAg, HBcAg and viremia) as well as immunological read-outs (ICS, ELISpot or humoral immune responses). […]
96-well Immulon 4HBX plates (Thermo Scientific) were coated overnight at +4° C. with 100 μL of recombinant HBc (Prospec) diluted to 1 μg/mL in BupH Carbonate-Bicarbonate buffer (Thermo Scientific Cat#28382). […] Ten minutes later, reaction was stopped by adding of 100 μL per well of 1N HCl and optic density was measured at 450 nm with Tecan Infinity 200 reader. […]
In general terms: In an ELISA, binding on a coated surface is turned into a signal by an enzyme label.

The test system of assay [2] is HBV RNA (AAV2/8-HBV). Kind of assay: Serum HBV RNA by RT-qPCR in HBV-persistent mice. It counts as in vivo, C57BL/6J mice. To be noted: sildenafil only 5 mg/kg/day (group b), over the experiment. On the procedure: The graph illustrates the median level of HBV RNA determined in the serum of 6 mice per group (groups a, b, e and f) treated with sildenafil at 5 mg/kg/day (group b) or with AdTG18201 alone (group e) or with a combination of AdTG18201 and sildenafil (at 5 mg/kg/day, group f). The control group a is untreated. The Y-axis indicates the median HBV RNA level (log 10 copies/mL) and the X-axis the time (number of days post-AAV2/8-HBV injection). Time points of AdTG18201 immunization (D36, D43, D50) are shown by a dashed line and the period of sildenafil treatment (from D31 to 59) is shown by a horizontal bar on the X axis.
HBV DNA/RNA extraction was performed using the MagMax-96 viral RNA isolation kit from Ambion according to manufacturer's protocol. Briefly, 50 μL of serum was added to 20 μL of reconstituted RNA/DNA binding beads. Plate was shaken for 1 minute on a thermomixer (Eppendorf Thermomixer compact) at 600-700 rpm. Then, 130 μL of lysis/binding solution, spiked with qPCR kit internal extraction control DNA, were added before additional shaking for 10 minutes. Beads were captured on a magnetic stand for 3 minutes and after 4 washes the supernatant was discarded. Residual washing solution was removed by drying the beads (shaking of the plate for 3 minutes at 900 rpm). Then, 50 μL of elution buffer was added (shaking of the plate for 3 minutes at 900 rpm). […]
Background: In qPCR the cycle at which signal appears reflects the starting amount.

Take `CCCc1nn(C)c2c(=O)nc(-c3cc(S(=O)(=O)N4CCN(C)CC4)ccc3OCC)[nH]c12` [sildenafil, 1-[[3-(4,7-dihydro-1-methyl-7-oxo-3-propyl-1H-pyrazolo[4,3-d]pyrimidin-5-yl)-4-ethoxyphenyl]sulfonyl]-4-methylpiperazine]: the “anti-HBc antibodies induction (OD450)” value in assay [1] is on record as “no anti-HBc antibodies were induced”. In addition, the “median level of viral RNA” value in assay [2] was “around 4.5 log 10 copies/mL serum”.
